Test results as given in US20180066268A1, “USE OF VITAMINS AND VITAMIN METABOLIC GENES AND PROTEINS FOR RECOMBINANT PROTEIN PRODUCTION IN MAMMALIAN CELLS” (priority 2015, published 2018).

Assays:
CHO-M cells [1] = test: CHO-M growth in vitamin-depleted B-CDmin medium complemented with lower concentrations of each vitamin; type: cell-based, Chinese hamster
Method: Cells (5000 cells/ml) were transferred into 150 μl media with different concentrations of vitamin B1, B5 or H (from 0 to 1×, see Table 2). 96 well-plates were used and growth was measured after 9 days of culture, by measuring the OD at 600 nm. Hatched (forward-leaning), dotted dark and hatched (backward-leaning) bars indicate modulation of B1, B5 and H concentrations, respectively.
The depleted B-CDmin medium was complemented with lower concentration of each vitamin separately, to determine the contrations range limiting CHO-M growth.
Suspension Chinese hamster ovary cells (CHO-M) were maintained in suspension culture in SFM4CHO-M Hyclone serum-free medium (SFM, ThermoScientific™) supplemented with L-glutamine (PAA, Austria) and HT supplement (GIBCO, INVITROGEN LIFE SCIENCES) at […], 5% CO2 in humidified air. Other cell media used for these experiments are the BalanCD CHO-M Growth A (B-CDfull; Irvine Scientific), and the Deficient BalanCD CHO-M Growth A (B-CDmin; Irvine Scientific), supplemented with vitamin B1 (thiamine Hydrochloride; SIGMA ALDRICH), vitamin B5 (Calcium DL-Pantothenate; TCI) and vitamin H (Biotin, SIGMA ALDRICH)

CHO-M cells [2] = test: CHO-M growth in B-CDmin medium supplemented with various concentrations of B5 and H; type: cell-based, Chinese hamster; conditions: B5 in 10× excess with low H (10×B5; 10^−4×H), 6 days of culture
Method: Cells were seeded at 20000 cells/ml into 500 μl of B-CD min media supplemented with the indicated amounts of vitamin B5 and H, and with B1 (1×). A 24 well-plate was used and growth was measured after 6 days of culture by measuring viable cell density.

## O=C(O)CCCC[C@@H]1SC[C@@H]2NC(=O)N[C@@H]21 [H, Biotin]
CHO-M cells [1]; H at low concentration (10^−5×)
  cell density versus full medium: slightly higher
CHO-M cells [1]; absolute concentration as printed, CHO-M, 9 days of culture
  limiting concentration: < 5 µM
CHO-M cells [1]; relative to standard concentration (1×: B1 7.5 μM, B5 2.5 μM, H 0.5 μM), CHO-M, 9 days of culture
  growth-limiting concentration range: lower than 10^−5 ×

## Calcium DL-Pantothenate [B5]
CHO-M cells [1]; relative to standard B5 concentration (1× = 2.5 μM)
  concentration allowing normal culture growth: ≥ 10^−2 ×
CHO-M cells [2]
  untransformed cell growth relative to complete medium (1×B5; 10^−4×H): strongly inhibited
